US20110039825A1, “LIGANDS OF ALPHA-ADRENOCEPTORS, DOPAMINE, HISTAMINE, IMIDAZOLINE AND SEROTONIN RECEPTORS AND THEIR USE” (Alla Chem, LLC, priority 2007, published 2011)
Read-outs that look alike come from different tables or passages of the source.

How the values were obtained:
[1] = target: T1, human α2A receptor (Homo sapiens, UniProt P08913); assay: radioligand binding to adrenergic receptor α2A ([3H] MK-912)
T1 construct: expressed in transfected cells; host or cells: Sf9
T1 sequence (P08913 1-465): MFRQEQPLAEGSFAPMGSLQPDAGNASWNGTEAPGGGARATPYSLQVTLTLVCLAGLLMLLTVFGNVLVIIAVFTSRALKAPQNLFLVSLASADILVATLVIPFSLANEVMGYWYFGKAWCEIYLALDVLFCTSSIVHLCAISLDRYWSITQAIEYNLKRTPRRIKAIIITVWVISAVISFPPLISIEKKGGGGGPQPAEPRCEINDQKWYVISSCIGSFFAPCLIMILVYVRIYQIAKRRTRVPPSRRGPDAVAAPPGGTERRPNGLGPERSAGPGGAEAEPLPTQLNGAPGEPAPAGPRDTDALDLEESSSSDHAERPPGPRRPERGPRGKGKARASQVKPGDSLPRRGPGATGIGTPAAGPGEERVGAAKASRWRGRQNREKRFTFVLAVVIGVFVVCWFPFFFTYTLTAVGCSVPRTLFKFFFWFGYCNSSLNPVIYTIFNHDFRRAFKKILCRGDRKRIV
From the text: J Pharmacol ExpTher. […] Yohimbine is used as positive control.

[2] = target: T2, human D2S receptor (Homo sapiens, UniProt P14416); assay: radioligand binding to dopamine receptor D2S ([3H] Spiperone); details: for Dopamine receptor D2S, % inhibition: 10 μM ligand
T2 construct: expressed in transfected cells; host or cells: CHO
T2 sequence (P14416 1-414 isoform P14416-2): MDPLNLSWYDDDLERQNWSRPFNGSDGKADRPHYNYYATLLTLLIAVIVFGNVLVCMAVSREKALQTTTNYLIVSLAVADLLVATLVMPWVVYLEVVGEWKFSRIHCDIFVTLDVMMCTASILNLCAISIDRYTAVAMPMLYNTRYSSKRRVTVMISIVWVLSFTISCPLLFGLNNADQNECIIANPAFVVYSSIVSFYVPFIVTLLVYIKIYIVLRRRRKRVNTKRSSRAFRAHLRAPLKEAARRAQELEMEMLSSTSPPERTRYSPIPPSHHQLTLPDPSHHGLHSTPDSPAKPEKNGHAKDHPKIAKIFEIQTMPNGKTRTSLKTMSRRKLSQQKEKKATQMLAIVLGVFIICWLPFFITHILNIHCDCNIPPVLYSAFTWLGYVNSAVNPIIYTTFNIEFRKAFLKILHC
From the text: 7-C. […] For this purpose sDNA of human D2S receptor is expressed in CHO cells, as described in [Hayes G, Biden T J, Selbie L A and Shine J, Structural subtypes of the dopamine D2 receptor are functionally distinct. […] Mol. Endocrinol. […] Mol. Endocrinol. […] Spiperone is used as positive control.

[3] = target: T3, human D3 receptor (Homo sapiens, UniProt P35462); assay: radioligand binding to dopamine receptor D3 ([3H] Spiperone); details: for Dopamine receptor D3, % inhibition: 10 μM ligand
T3 construct: expressed in transfected cells; host or cells: CHO
T3 sequence (P35462 whole entry): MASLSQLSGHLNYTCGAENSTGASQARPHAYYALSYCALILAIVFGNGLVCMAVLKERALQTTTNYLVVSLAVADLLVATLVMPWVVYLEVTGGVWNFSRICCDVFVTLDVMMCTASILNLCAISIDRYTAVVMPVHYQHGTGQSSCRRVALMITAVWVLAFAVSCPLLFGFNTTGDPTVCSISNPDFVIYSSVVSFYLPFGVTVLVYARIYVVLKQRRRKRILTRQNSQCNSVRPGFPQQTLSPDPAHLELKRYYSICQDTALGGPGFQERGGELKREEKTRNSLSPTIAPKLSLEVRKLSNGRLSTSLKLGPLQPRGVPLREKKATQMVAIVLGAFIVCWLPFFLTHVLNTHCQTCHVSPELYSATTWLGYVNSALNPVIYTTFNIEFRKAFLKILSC
From the text: For this purpose sDNA of human D3 receptor is expressed in CHO cells, as it was described in [Sokoloff P, Giros B, Martres M-P, Bouthenet M-L and Schwartz J-C. Molecular cloning and characterization of novel dopamine receptor (D3) as target for neuroleptics. Nature. […] Molecular cloning and characterization of novel dopamine receptor (D3) as target for neuroleptics. Nature. […] Spiperone is used as positive control.

[4] = target: T4, human D1 receptor (Homo sapiens, UniProt P21728); assay: radioligand binding to dopamine receptor D1 ([3H] SCH-23390); details: for Dopamine receptor D1, % inhibition: 10 μM ligand
T4 construct: expressed in transfected cells; host or cells: CHO
T4 sequence (P21728 whole entry): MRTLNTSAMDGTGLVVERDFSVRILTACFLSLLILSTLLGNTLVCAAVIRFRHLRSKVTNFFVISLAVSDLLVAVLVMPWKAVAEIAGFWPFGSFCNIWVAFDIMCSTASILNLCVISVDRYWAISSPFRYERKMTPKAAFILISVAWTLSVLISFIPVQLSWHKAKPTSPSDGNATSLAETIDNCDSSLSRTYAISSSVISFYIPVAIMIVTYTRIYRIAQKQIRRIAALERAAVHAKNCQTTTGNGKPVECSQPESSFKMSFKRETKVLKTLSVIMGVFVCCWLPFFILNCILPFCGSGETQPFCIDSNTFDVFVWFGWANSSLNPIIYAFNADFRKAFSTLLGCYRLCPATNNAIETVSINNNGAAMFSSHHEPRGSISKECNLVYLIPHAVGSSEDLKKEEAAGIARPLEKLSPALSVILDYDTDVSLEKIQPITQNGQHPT
From the text: For this purpose sDNA of human D1 receptor is expressed in CHO cells, as it was described in [Dearry A, Gingrich J A, Falardeau P, Fremeau R T Jr, Bates M D and Caron M G. Molecular cloning and expression of the gene for a human D1 dopamine receptor. Nature. […] Nature.

[5] = test system: imidazoline receptor I2; assay: radioligand binding to imidazoline receptor I2 ([3H] Idazoxan); design: species or system rat
Procedure: Determination of investigated compounds' binding to imidazoline I2 receptor is carried out according to the method described in [Brown C M, MacKinnon A C, McGrath J C, Spedding M and Kilpatrick A T, a2-Adrenoceptor subtypes and imidazoline-like binding in the rat brain. Br J. Pharmacol. 99:803-809, 1990]. […] Idazoxan is used as positive control.

[6] = target: T5, human H1 receptor (Homo sapiens, UniProt P35367); assay: radioligand binding to histamine receptor H1 ([3H] Pyrilamine); details: for Histamine receptor H1, % inhibition: 10 μM ligand
T5 construct: expressed in transfected cells; host or cells: CHO-K1
T5 sequence (P35367 whole entry): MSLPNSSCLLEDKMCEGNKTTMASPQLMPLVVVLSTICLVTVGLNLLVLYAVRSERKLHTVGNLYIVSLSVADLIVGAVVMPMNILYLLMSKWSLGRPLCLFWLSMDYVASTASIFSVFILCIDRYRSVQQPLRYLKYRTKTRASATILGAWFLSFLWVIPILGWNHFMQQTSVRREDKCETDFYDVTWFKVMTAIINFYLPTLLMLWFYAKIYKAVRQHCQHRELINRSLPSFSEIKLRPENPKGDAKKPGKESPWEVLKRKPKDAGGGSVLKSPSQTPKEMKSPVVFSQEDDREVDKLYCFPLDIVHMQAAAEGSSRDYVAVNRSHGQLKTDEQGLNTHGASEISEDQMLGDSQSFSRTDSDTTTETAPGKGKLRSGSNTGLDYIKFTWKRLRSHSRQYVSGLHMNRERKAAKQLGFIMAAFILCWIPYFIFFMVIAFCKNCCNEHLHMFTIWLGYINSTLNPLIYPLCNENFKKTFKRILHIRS
From the text: Biochem Biophys Res Comm. 197(3): 1601-1608, 1993]. […] Biochem Biophys Res Comm. 197(3): 1601-1608, 1993].
Pyrilamine is used as positive control.

[7] = target: T6, adrenergic receptor α1B (Rattus norvegicus, UniProt P15823); assay: radioligand binding to adrenergic receptor α1B ([3H] Prazosin)
T6 construct: membrane species from rat liver (rat of Wistar breed) are prepared; from tissue; host or cells: rat (Wistar) liver membranes
T6 sequence (P15823 1-515): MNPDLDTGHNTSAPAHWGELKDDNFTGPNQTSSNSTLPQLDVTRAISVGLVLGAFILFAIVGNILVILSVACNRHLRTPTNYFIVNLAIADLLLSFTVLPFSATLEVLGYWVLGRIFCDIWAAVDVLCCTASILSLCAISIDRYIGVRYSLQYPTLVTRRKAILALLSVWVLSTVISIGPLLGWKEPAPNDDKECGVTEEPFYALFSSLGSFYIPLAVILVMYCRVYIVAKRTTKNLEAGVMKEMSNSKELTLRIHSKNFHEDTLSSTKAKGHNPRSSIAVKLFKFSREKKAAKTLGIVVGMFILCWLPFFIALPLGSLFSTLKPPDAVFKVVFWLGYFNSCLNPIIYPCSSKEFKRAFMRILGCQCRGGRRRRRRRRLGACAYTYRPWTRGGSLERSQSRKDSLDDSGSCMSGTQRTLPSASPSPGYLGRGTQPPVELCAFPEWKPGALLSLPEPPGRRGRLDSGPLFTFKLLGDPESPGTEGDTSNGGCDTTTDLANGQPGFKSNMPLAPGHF
From the text: Species heterogeneity of hepatic α1A-, α1B-, and α1C-subtypes. Biochem Biophys Res Commun. 186:760-7676 1992]. […] Prazosin is used as positive control.

[8] = target: T7, recombinant human 5-HT6 receptor (Homo sapiens, UniProt P50406); assay: radioligand binding to serotonin receptor 5-HT6 ([3H] Lysergic acid diethylamide); details: for inhibition at 1 µM: read-out: 5-HT6 % inhibition
T7 construct: expressed in transfected cells; host or cells: HeLa
T7 sequence (P50406 whole entry): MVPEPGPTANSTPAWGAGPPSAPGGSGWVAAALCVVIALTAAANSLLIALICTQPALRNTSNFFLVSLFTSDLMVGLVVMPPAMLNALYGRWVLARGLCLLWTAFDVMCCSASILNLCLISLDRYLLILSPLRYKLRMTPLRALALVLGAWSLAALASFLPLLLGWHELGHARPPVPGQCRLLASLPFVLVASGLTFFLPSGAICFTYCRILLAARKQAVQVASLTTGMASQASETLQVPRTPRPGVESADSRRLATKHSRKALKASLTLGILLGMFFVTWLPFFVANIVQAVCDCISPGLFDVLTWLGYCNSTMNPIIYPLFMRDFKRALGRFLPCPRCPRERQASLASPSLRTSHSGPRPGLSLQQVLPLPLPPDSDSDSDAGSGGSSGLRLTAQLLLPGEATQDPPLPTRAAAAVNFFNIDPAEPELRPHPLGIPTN
From the text: Mol. Pharmacol. 43:320-327, 1993]. […] Methiothepin is used as positive control.

| Structure (SMILES) | α-Adrenoceptor α2A, % inhibition ([1]; 10 μM ligand) | Dopamine receptor D2S, % inhibition [2] | Dopamine receptor D3, % inhibition [3] | Dopamine receptor D1, % inhibition [4] | imidazoline I2 receptor % inhibition ([5]; 10 μM ligand) | Histamine receptor H1, % inhibition [6] | α-Adrenoceptor α1B, % inhibition ([7]; 10 μM ligand) | IC50 [1] | Ki [1] | IC50 [8] | Ki [8] | nH 5-HT6 [8] | IC50 [7] | Ki [7] | further results |
| --- | --- | --- | --- | --- | --- | --- | --- | --- | --- | --- | --- | --- | --- | --- | --- |
| Cc1ccc2c(c1)[C@@H]1CN(C)CCC[C@@H]1N2CCc1ccc(C)nc1.Cl.Cl.Cl (relative stereo) [1.6.1(2)•3HCl] | 82% | 31% | 41% | 55% | 80% | 102% | 93% | – | – | – | – | – | – | – | – |
| Cc1ccc2c(c1)c1c(n2CCc2ccccn2)CCN(C)C1.Cl.Cl [1.1.2(2-3)•2HCl] | – | – | – | – | 88% | 98% | – | 0.128 µM | 0.0479 µM | 0.109 µM | 0.0505 µM | 0.744 | 0.047 µM | 0.026 µM | inhibition at 1 µM ([8]; ligand concentration 1 μM): 97% |
| Cc1ccc2c(c1)[C@H]1CN(C)CCC[C@@H]1N2CCc1cccnc1 [1.6.2(10)•3HCl] | 92% | 33% | 25% | 88% | – | 103% | 92% | – | – | – | – | – | – | – | inhibition at 1 µM [8]: 93% |
| CN1CCc2c(c3ccccc3n2Cc2ccccc2)C1 [1.9(1)•½NDSA, bis-(5-benzyl-2-methyl-2,3,4,5-tetrahydro-1H-pyrido[4,3-b]indole) naphtalene-1,5-disulfonate] | – | 51% | 65% | 77% | – | – | – | 0.123 µM | 0.0461 µM | 0.103 µM | 0.0476 µM | 1.07 | 1.58 µM | 0.872 µM | nH α2A [1]: 1.13; α-Adrenoceptor α2A, % inhibition ([1]; 0.3 μM ligand): 73(0.3 μM) %; IC50 [2]: 3 µM; Ki [2]: 1.08 µM; nH D2S [2]: 0.879; IC50 [3]: 1.36 µM; Ki [3]: 0.462 µM; nH D3 [3]: 1.04; nH D1 [4]: 1.38; imidazoline I2 receptor % inhibition ([5]; 0.3 μM ligand): 87 (0.3 μM) %; 5-HT6 % inhibition ([8]; 0.3 μM ligand): 78%; IC50 [6]: 0.00397 µM; Ki [6]: 0.0019 µM; nH H1 [6]: 0.789; nH α1B [7]: 0.956; α-Adrenoceptor α1B, % inhibition ([7]; 3 μM ligand): 62(3 μM) % |
